# Legend:
# [1] = molecular target: T1, recombinant BACE1 protein (Homo sapiens, UniProt P56817); assay: Biochemical FRET based assay; settings: recombinant BACE1 1 μg/ml, 10 μm substrate, 120 minutes, room temperature, pH 5.0; read-out: Biochemical FRET based assay pIC50 (converted)
# T1 construct: recombinant BACE1 protein in a final concentration of 1 μg/ml
# From the text: This assay is a Fluorescence Resonance Energy Transfer Assay (FRET) based assay. The substrate for this assay is an APP derived 13 amino acids peptide that contains the ‘Swedish’ Lys-Met/Asn-Leu mutation of the amyloid precursor protein (APP) β-secretase cleavage site. This substrate also contains two fluorophores: (7-methoxycoumarin-4-yl) acetic acid (Mca) is a fluorescent donor with excitation wavelength at 320 nm and emission at 405 nm and 2,4-Dinitrophenyl (Dnp) is a proprietary quencher acceptor. […] Upon cleavage by BACE1, the fluorophore Mca is separated from the quenching group Dnp, restoring the full fluorescence yield of the donor. The increase in fluorescence is linearly related to the rate of proteolysis (Koike H et al. J. Biochem. 1999, 126, 235-242).
# Briefly in a 384-well format recombinant BACE1 protein in a final concentration of 1 μg/ml is incubated for 120 minutes at room temperature with 10 μm substrate in incubation buffer (40 mM Citrate buffer pH 5.0, 0.04% PEG, 4% DMSO) in the absence or presence of compound. Next the amount of proteolysis is directly measured by fluorescence measurement at T=0 and T=120 (excitation at 320 nm and emission at 405 nm).
# (§1) LC=Median of the low control values
# =Low control: Reaction without enzyme
# (§2) HC=Median of the High control values
# =High Control: Reaction with enzyme % Effect=100−[(sample−LC)/(HC−LC)*100] % Control=(sample/HC)*100% % Controlmin=(sample−LC)/(HC−LC)*100
# [2] = test system: Aβ42 produced and secreted into the medium of human neuroblastoma SKNBE2 cells; assay: Cellular αlisa assay in SKNBE2 cells, Aβ42; type: cell-based; settings: SKNBE2 cells expressing hAPP695, incubated for 18 hours; for IC50: Homo sapiens, SKNBE2, 18 h, read-out: Cellular αlisa assay in SKNBE2 cells Aβ42 pIC50 (converted)
# Experimental: (§3) In two αlisa assays the levels of Aβtotal and Aβ42 produced and secreted into the medium of human neuroblastoma SKNBE2 cells are quantified. The assay is based on the human neuroblastoma SKNBE2 expressing the wild type Amyloid Precursor Protein (hAPP695). The compounds are diluted and added to these cells, incubated for 18 hours and then measurements of Aβ42 and Aβtotal are taken. Aβtotal and Aβ42 are measured by sandwich αlisa. αlisa is a sandwich assay using biotinylated antibody AbN/25 attached to streptavidin coated beads and antibody Ab4G8 or cAb42/26 conjugated acceptor beads for the detection of Aβtotal and Aβ42 respectively. In the presence of Aβtotal or Aβ42, the beads come into close proximity. The excitation of the Donor beads provokes the release of singlet oxygen molecules that triggers a cascade of energy transfer in the Acceptor beads, resulting in light emission. Light emission is measured after 1 hour incubation (excitation at […] and emission at 615 nm).
# (§4) A best-fit curve is fitted by a minimum sum of squares method to the plot of % Controlmin versus compound concentration.
# as §1
# (§5) =Low control: cells preincubated without compound, without biotinylated Ab in the αlisa
# as §2
# (§6) =High Control: cells preincubated without compound % Effect=100−[(sample−LC)/(HC−LC)*100] % Control=(sample/HC)*100% % Controlmin=(sample−LC)/(HC−LC)*100
# [3] = test system: Aβtotal produced and secreted into the medium of human neuroblastoma SKNBE2 cells; assay: Cellular αlisa assay in SKNBE2 cells, Aβtotal; type: cell-based; settings: SKNBE2 cells expressing hAPP695, incubated for 18 hours; for IC50: Homo sapiens, SKNBE2, 18 h, read-out: Cellular αlisa assay in SKNBE2 cells Aβtotal pIC50 (converted)
# Experimental: as §3, §4, §1, §5, §2, §6
# [4] = test system: brain levels of soluble Aβ42; assay: In vivo efficacy: brain Aβ42 lowering (ELISA); set-up: species or system mouse; settings: 30 mpk
# From the text: (§7) To determine whether acute administration of an Aβ42 peptide lowering agent would reduce Aβ peptide levels in vivo, non-transgenic rodents, e.g. mice or rats were used. Animals treated with the Aβ peptide lowering agent were examined and compared to those untreated or treated with vehicle and brain levels of soluble Aβ42 and total Aβ were quantitated by standard techniques, for example, using ELISA. Treatment periods varied from hours (h) to days and were adjusted based on the results of the Aβ42 lowering once a time course of onset of effect could be established.
# (§8) A typical protocol for measuring Aβ42 lowering in vivo is shown but it is only one of many variations that could be used to optimize the levels of detectable Aβ. For example, Aβpeptide lowering compounds were formulated in 20% hydroxypropyl β cyclodextrin. The Aβ peptide lowering agents were administered as a single oral dose (p.o.) or a single subcutaneous dose (s.c.) to overnight fasted animals. After a certain time, usually 2 or 4 h (as indicated in Table 19), the animals were sacrificed and Aβ42 levels were analysed.
# (§9) Blood was collected by decapitation and exsanguinations in EDTA-treated collection tubes. Blood was centrifuged at 1900 g for 10 minutes (min) at 4° C. and the plasma recovered and flash frozen for later analysis. The brain was removed from the cranium and hindbrain. The cerebellum was removed and the left and right hemisphere were separated. The left hemisphere was stored at −18° C. for quantitative analysis of test compound levels. The right hemisphere was rinsed with phosphate-buffered saline (PBS) buffer and immediately frozen on dry ice and stored at −80° C. until homogenization for biochemical assays.
# (§10) Mouse brains from non-transgenic animals were resuspended in 8 volumes of 0.4% DEA (diethylamine)/50 mM NaCl containing protease inhibitors (Roche-11873580001 or 04693159001) per gram of tissue, e.g. for 0.158 g brain, add 1.264 ml of 0.4% DEA. All samples were homogenized in the FastPrep-24 system (MP Biomedicals) using lysing matrix D (MPBio #6913-100) at 6 m/s for 20 seconds. Homogenates were centrifuged at 221.300×g for 50 min. The resulting high speed supernatants were then transferred to fresh eppendorf tubes. Nine parts of supernatant were neutralized with 1 part 0.5 M Tris-HCl pH 6.8 and used to quantify Aβtotal and Aβ42.
# (§11) To quantify the amount of Aβtotal and Aβ42 in the soluble fraction of the brain homogenates, Enzyme-Linked-Immunosorbent-Assays were used. Briefly, the standards (a dilution of synthetic Aβ1-40 and Aβ1-42, Bachem) were prepared in 1.5 ml Eppendorf tube in Ultraculture, with final concentrations ranging from 10000 to 0.3 pg/ml. The samples and standards were co-incubated with HRPO-labelled N-terminal antibody for Aβ42 detection and with the biotinylated mid-domain antibody 4G8 for Aβtotal detection. 50 μl of conjugate/sample or conjugate/standards mixtures were then added to the antibody-coated plate (the capture antibodies selectively recognize the C-terminal end of Aβ42, antibody JRF/cAβ42/26, for Aβ42 detection and the N-terminus of Aβ, antibody JRF/rAβ/2, for Aβtotal detection). The plate was allowed to incubate overnight at 4° C. in order to allow formation of the antibody-amyloid complex. Following this incubation and subsequent wash steps the ELISA for Aβ42 quantification was finished by addition of Quanta Blu fluorogenic peroxidase substrate according to the manufacturer's instructions (Pierce Corp., Rockford, Il). A reading was performed after 10 to 15 min (excitation 320 nm/emission 420 nm).
# In this model at least 20% Aβ42 lowering compared to untreated animals would be advantageous.
# brain levels of total Aβ = assay: In vivo efficacy: brain Aβtotal lowering (ELISA); set-up: species or system mouse; settings: 30 mpk
# From the text: as §7, §8, §9, §10, §11
# For Aβtotal detection, a Streptavidine-Peroxidase-Conjugate was added, followed 60 min later by an additional wash step and addition of Quanta Blu fluorogenic peroxidase substrate according to the manufacturer's instructions (Pierce Corp., Rockford, Il). A reading was performed after 10 to 15 min (excitation 320 nm/emission 420 nm).
# T1 sequence (P56817 46-501): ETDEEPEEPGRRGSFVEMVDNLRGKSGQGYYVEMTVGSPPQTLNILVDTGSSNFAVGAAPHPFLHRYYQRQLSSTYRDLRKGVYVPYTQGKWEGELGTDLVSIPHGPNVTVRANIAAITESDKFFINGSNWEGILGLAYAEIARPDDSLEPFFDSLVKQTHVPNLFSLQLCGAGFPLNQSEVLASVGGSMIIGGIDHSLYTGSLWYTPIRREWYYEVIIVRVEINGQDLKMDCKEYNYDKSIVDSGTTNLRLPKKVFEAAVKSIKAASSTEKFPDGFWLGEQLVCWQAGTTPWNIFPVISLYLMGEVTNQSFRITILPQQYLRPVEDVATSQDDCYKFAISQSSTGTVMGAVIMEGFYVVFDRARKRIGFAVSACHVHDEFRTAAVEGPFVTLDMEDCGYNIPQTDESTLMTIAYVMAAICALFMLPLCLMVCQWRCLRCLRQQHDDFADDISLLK
Structure (SMILES),IC50 [1] [µM],IC50 [2] [µM],IC50 [3] [µM],Cellular αlisa assay in SKNBE2 cells Aβ42 pIC50 [2],Cellular αlisa assay in SKNBE2 cells Aβtotal pIC50 [3],"Aβ42 (% Ctrl)_Mean ([4]; s.c., 4 h after administration) [% Ctrl]","Aβtotal (% Ctrl)_Mean (brain levels of total Aβ; s.c., 4 h after administration) [% Ctrl]","Aβ42 (% Ctrl)_Mean ([4]; s.c., 2 h after administration) [% Ctrl]","Aβtotal (% Ctrl)_Mean (brain levels of total Aβ; s.c., 2 h after administration) [% Ctrl]","Aβ42 (% Ctrl)_Mean ([4]; p.o., 2 h after administration) [% Ctrl]","Aβtotal (% Ctrl)_Mean (brain levels of total Aβ; p.o., 2 h after administration) [% Ctrl]"
C[C@@]1(c2cc(NC(=O)c3ccc(F)cn3)ccc2F)Cn2cc(C(F)(F)F)nc2C(N)=N1 [Compound 24],0.132,0.0389,0.0339,–,–,50,67,–,–,–,–
"CC1(c2cc(NC(=O)c3ccc(F)cn3)ccc2F)Cn2ccnc2C(N)=N1 (single isomer, unassigned) [Compound 10]",0.214,0.0589,0.0501,–,–,–,–,45,53,–,–
"CC1(c2cccc(-c3cncnc3)c2)Cn2ccnc2C(N)=N1 (racemic) [Compound 1, rac-6-methyl-6-(3-pyrimidin-5-yl-phenyl)-5,6-dihydro-imidazo[1,2-a]pyrazin-8-ylamine]",9.77,0.191,0.174,–,–,–,–,–,–,–,–
C[C@@]1(c2cc(NC(=O)c3ccc(C#N)cn3)ccc2F)Cn2ccnc2C(N)=N1 [Compound 18],–,0.00631,0.00562,–,–,–,–,–,–,38,52
"COc1cnc(C(=O)Nc2ccc(F)c(C3(C)Cn4ccnc4C(N)=N3)c2)cn1 (single isomer, unassigned) [Compound 9]",0.148,0.0355,0.0316,–,–,–,–,57,49,40,63
C[C@@]1(c2cc(NC(=O)c3ncc(C#N)cc3Cl)ccc2F)Cn2ccnc2C(N)=N1 [Compound 21],0.049,0.00933,0.00955,–,–,–,–,33,7,–,–
C[C@@]1(c2cc(NC(=O)c3ncc(Cl)cc3Cl)ccc2F)Cn2ccnc2C(N)=N1 [Compound 19],0.049,0.011,0.00977,–,–,–,–,–,–,–,–

# Further lines, with some results ahead:
IC50 [1] [µM],IC50 [2] [µM],IC50 [3] [µM],Cellular αlisa assay in SKNBE2 cells Aβ42 pIC50 [2],Cellular αlisa assay in SKNBE2 cells Aβtotal pIC50 [3],Structure (SMILES),"Aβ42 (% Ctrl)_Mean ([4]; s.c., 4 h after administration) [% Ctrl]","Aβtotal (% Ctrl)_Mean (brain levels of total Aβ; s.c., 4 h after administration) [% Ctrl]","Aβ42 (% Ctrl)_Mean ([4]; s.c., 2 h after administration) [% Ctrl]","Aβtotal (% Ctrl)_Mean (brain levels of total Aβ; s.c., 2 h after administration) [% Ctrl]","Aβ42 (% Ctrl)_Mean ([4]; p.o., 2 h after administration) [% Ctrl]","Aβtotal (% Ctrl)_Mean (brain levels of total Aβ; p.o., 2 h after administration) [% Ctrl]"
0.427,0.0661,0.0676,–,–,C[C@@]1(c2cc(NC(=O)c3ccsn3)ccc2F)Cn2ccnc2C(N)=N1 [Compound 45],–,–,–,–,–,–
> 30.2,–,–,<5,<5,NC1=NC(c2cc(NC(=O)c3ccc(F)cn3)ccc2F)(C(F)F)Cn2ccnc21 (centres unmarked) [Compound 29],–,–,–,–,–,–
0.0617,0.0363,0.0355,–,–,C[C@@]1(c2cc(NC(=O)c3ccc(F)cn3)ccc2F)Cn2cc(Cl)nc2C(N)=N1 [Compound 53],–,–,–,–,–,–
0.115,0.0191,0.02,–,–,C[C@@]1(c2cc(NC(=O)c3ccn(C(F)F)n3)ccc2F)Cn2ccnc2C(N)=N1 [Compound 42],–,–,–,–,–,–
0.0759,0.0324,0.0355,–,–,C[C@@]1(c2cc(NC(=O)c3ccc(F)cn3)ccc2F)Cn2cc(Br)nc2C(N)=N1 [Compound 54],–,–,–,–,–,–

# From US9840507B2, “5,6-dihydro-imidazo[1,2-a]pyrazin-8-ylamine derivatives useful as inhibitors of beta-secretase (BACE)” (Janssen Pharmaceutica, NV, priority 2010, dated 2017)
